Values of other authors as cited in patent publication US20080286344A1, “Solid form” (priority 2007, published 2008).

Cn1c(=O)c2[nH]cnc2n(C)c1=O [theophylline]
Solubility in water, g of water for 1 g (1 g active in stated g of water): 100-1000 g water | Solubility in water (descriptive term) (water): slightly soluble
